# Data reported in ChEMBL document CHEMBL4610060, “Orally bioavailable amine-linked macrocyclic inhibitors of factor XIa” (Bioorg Med Chem Lett, 2020).
# How the values were obtained:
# [1] = Metabolic stability in human liver microsomes assessed as half life; type: ADME, Microsome
# Plasma = assay: Anticoagulant activity in human plasma assessed as EC1.5 of activated partial thromboplastin time by coagulometric analysis; type: functional
# Coagulation factor XI = Coagulation factor XI (Homo sapiens, UniProt P03951); assay: Inhibition of recombinant human activated coagulation factor XI using pyro-Glu-Pro-Arg-pNA as substrate by spectrophotometry
# Chain of Coagulation factor XI (P03951 19-387 limits assumed): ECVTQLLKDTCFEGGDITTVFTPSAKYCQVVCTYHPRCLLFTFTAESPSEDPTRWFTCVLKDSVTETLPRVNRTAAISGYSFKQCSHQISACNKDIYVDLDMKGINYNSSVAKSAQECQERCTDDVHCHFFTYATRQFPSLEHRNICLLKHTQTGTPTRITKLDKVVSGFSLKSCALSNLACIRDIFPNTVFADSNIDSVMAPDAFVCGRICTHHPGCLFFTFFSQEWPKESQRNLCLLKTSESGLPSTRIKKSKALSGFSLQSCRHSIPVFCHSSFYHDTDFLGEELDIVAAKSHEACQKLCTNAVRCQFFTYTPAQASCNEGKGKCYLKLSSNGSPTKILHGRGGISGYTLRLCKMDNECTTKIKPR
# Chain of Coagulation factor XI (P03951 388-625 limits assumed): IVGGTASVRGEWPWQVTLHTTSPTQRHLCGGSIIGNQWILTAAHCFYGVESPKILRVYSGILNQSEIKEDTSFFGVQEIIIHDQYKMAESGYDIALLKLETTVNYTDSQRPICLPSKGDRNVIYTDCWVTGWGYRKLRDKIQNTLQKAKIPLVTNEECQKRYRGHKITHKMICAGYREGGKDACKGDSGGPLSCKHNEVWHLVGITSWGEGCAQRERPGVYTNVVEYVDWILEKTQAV
# [2] = Permeability across basolateral to apical side in human Caco2 cells; type: ADME, cell-based; settings: Caco-2, read-out: permeability
# [3] = Oral bioavailability in Sprague-Dawley rat at 2.27 mg/kg measured upto 24 hrs by LC-MS/MS analysis; type: ADME, organism-based; settings: in vivo
# [4] = Clearance in Sprague-Dawley rat at 1.13 mg/kg, iv or 2.27 mg/kg, po measured upto 24 hrs by LC-MS/MS analysis; type: ADME, organism-based; settings: in vivo
# [5] = AUC in Sprague-Dawley rat at 2.27 mg/kg, po measured upto 24 hrs by LC-MS/MS analysis; type: ADME, organism-based; design: time < 24 hr, dose 2.27 mg/kg, route oral; settings: in vivo
# [6] = Half life in Sprague-Dawley rat at 1.13 mg/kg, iv or 2.27 mg/kg, po measured upto 24 hrs by LC-MS/MS analysis; type: ADME, organism-based; settings: in vivo
# [7] = Metabolic stability in rat liver microsomes assessed as half life; type: ADME, Microsome
# [8] = Permeability across apical to basolateral side in human Caco2 cells; type: ADME, cell-based; settings: Caco-2, read-out: permeability
# [9] = Volume of distribution at steady state in Sprague-Dawley rat at 1.13 mg/kg, iv or 2.27 mg/kg, po measured upto 24 hrs by LC-MS/MS analysis; type: ADME, organism-based; settings: in vivo, read-out: Vdss
# [10] = Half life in Sprague-Dawley rat at 0.72 mg/kg, iv or 1.44 mg/kg, po measured upto 24 hrs by LC-MS/MS analysis; type: ADME, organism-based; settings: in vivo
# [11] = Oral bioavailability in Sprague-Dawley rat at 1.44 mg/kg measured upto 24 hrs by LC-MS/MS analysis; type: ADME, organism-based; settings: in vivo
# [12] = Protein binding in rat assessed as unbound fraction; type: ADME
# [13] = Volume of distribution at steady state in Sprague-Dawley rat at 0.72 mg/kg, iv or 1.44 mg/kg, po measured upto 24 hrs by LC-MS/MS analysis; type: ADME, organism-based; settings: in vivo, read-out: Vdss
# [14] = Clearance in Sprague-Dawley rat at 0.72 mg/kg, iv or 1.44 mg/kg, po measured upto 24 hrs by LC-MS/MS analysis; type: ADME, organism-based; settings: in vivo
# [15] = AUC in Sprague-Dawley rat at 1.44 mg/kg, po measured upto 24 hrs by LC-MS/MS analysis; type: ADME, organism-based; design: time < 24 hr, dose 1.44 mg/kg, route oral; settings: in vivo
# [16] = Volume of distribution at steady state in Sprague-Dawley rat at 0.31 mg/kg, iv or 0.61 mg/kg, po measured upto 24 hrs by LC-MS/MS analysis; type: ADME, organism-based; settings: in vivo, read-out: Vdss
# [17] = Oral bioavailability in Sprague-Dawley rat at 0.61 mg/kg measured upto 24 hrs by LC-MS/MS analysis; type: ADME, organism-based; settings: in vivo
# [18] = AUC in Sprague-Dawley rat at 0.61 mg/kg, po measured upto 24 hrs by LC-MS/MS analysis; type: ADME, organism-based; design: time < 24 hr, dose 0.61 mg/kg, route oral; settings: in vivo
# [19] = Clearance in Sprague-Dawley rat at 0.31 mg/kg, iv or 0.61 mg/kg, po measured upto 24 hrs by LC-MS/MS analysis; type: ADME, organism-based; settings: in vivo
# [20] = Half life in Sprague-Dawley rat at 0.31 mg/kg, iv or 0.61 mg/kg, po measured upto 24 hrs by LC-MS/MS analysis; type: ADME, organism-based; settings: in vivo
# [21] = Clearance in Sprague-Dawley rat at 0.50 mg/kg, iv or 1.0 mg/kg, po measured upto 24 hrs by LC-MS/MS analysis; type: ADME, organism-based; settings: in vivo, 0.5 mg/kg
# [22] = Half life in Sprague-Dawley rat at 0.50 mg/kg, iv or 1.0 mg/kg, po measured upto 24 hrs by LC-MS/MS analysis; type: ADME, organism-based; settings: in vivo
# [23] = Oral bioavailability in Sprague-Dawley rat at 1.0 mg/kg measured upto 24 hrs by LC-MS/MS analysis; type: ADME, organism-based; settings: in vivo
# [24] = Volume of distribution at steady state in Sprague-Dawley rat at 0.50 mg/kg, iv or 1.0 mg/kg, po measured upto 24 hrs by LC-MS/MS analysis; type: ADME, organism-based; settings: in vivo, 0.5 mg/kg, read-out: Vdss
# [25] = AUC in Sprague-Dawley rat at 1.0 mg/kg, po measured upto 24 hrs by LC-MS/MS analysis; type: ADME, organism-based; design: dose 1 mg/kg, time < 24 hr, route oral; settings: in vivo
# [26] = Half life in Sprague-Dawley rat at 0.49 mg/kg, iv or 0.98 mg/kg, po measured upto 24 hrs by LC-MS/MS analysis; type: ADME, organism-based; settings: in vivo
# [27] = Oral bioavailability in Sprague-Dawley rat at 0.98 mg/kg measured upto 24 hrs by LC-MS/MS analysis; type: ADME, organism-based; settings: in vivo
# [28] = AUC in Sprague-Dawley rat at 0.98 mg/kg, po measured upto 24 hrs by LC-MS/MS analysis; type: ADME, organism-based; design: time < 24 hr, dose 0.98 mg/kg, route oral; settings: in vivo
# [29] = Clearance in Sprague-Dawley rat at 0.49 mg/kg, iv or 0.98 mg/kg, po measured upto 24 hrs by LC-MS/MS analysis; type: ADME, organism-based; settings: in vivo
# [30] = Volume of distribution at steady state in Sprague-Dawley rat at 0.49 mg/kg, iv or 0.98 mg/kg, po measured upto 24 hrs by LC-MS/MS analysis; type: ADME, organism-based; settings: in vivo, read-out: Vdss
# [31] = Volume of distribution at steady state in Sprague-Dawley rat at 0.53 mg/kg, iv or 1.06 mg/kg, po measured upto 24 hrs by LC-MS/MS analysis; type: ADME, organism-based; settings: in vivo, read-out: Vdss
# [32] = AUC in Sprague-Dawley rat at 1.06 mg/kg, po measured upto 24 hrs by LC-MS/MS analysis; type: ADME, organism-based; design: time < 24 hr, dose 1.06 mg/kg, route oral; settings: in vivo
# [33] = Clearance in Sprague-Dawley rat at 0.53 mg/kg, iv or 1.06 mg/kg, po measured upto 24 hrs by LC-MS/MS analysis; type: ADME, organism-based; settings: in vivo
# [34] = Oral bioavailability in Sprague-Dawley rat at 1.06 mg/kg measured upto 24 hrs by LC-MS/MS analysis; type: ADME, organism-based; settings: in vivo
# [35] = Half life in Sprague-Dawley rat at 0.53 mg/kg, iv or 1.06 mg/kg, po measured upto 24 hrs by LC-MS/MS analysis; type: ADME, organism-based; settings: in vivo
SMILES,half-life [1],EC1.5 (Plasma),Ki (Coagulation factor XI),further results
COC(=O)C[C@H]1CCCC[C@H](NC(=O)/C=C/c2cc(Cl)ccc2-n2cnnn2)c2nc(c[nH]2)-c2ccc(NC(=O)OC)cc2N1,4 min,1.1 µM,2 nM,–
COC(=O)Nc1ccc2c(c1)NC(=O)CCCC[C@H](NC(=O)/C=C/c1cc(Cl)ccc1-n1cnnn1)c1nc-2c[nH]1,90 min,0.3 µM,–,Papp B→A [2]: 6.7 ×10⁻⁶ cm/s; bioavailability [3]: < 1%; clearance [4]: 10 mL/min/kg; AUC at 24 h [5]: 0.024 µM·h; half-life [6]: 60 min; half-life [7]: 76 min; Papp A→B [8]: < 1.5 ×10⁻⁶ cm/s; Vd [9]: 0.3 L/kg
COC(=O)Nc1ccc2c(c1)N[C@@H](C(F)(F)F)CCCC[C@H](NC(=O)/C=C/c1cc(Cl)ccc1-n1cnnn1)c1nc-2c[nH]1,54 min,2.6 µM,1.1 nM,half-life [10]: 84 min; bioavailability [11]: 9%; fraction unbound [12]: 0.002; half-life [7]: 14 min; Vd [13]: 0.4 L/kg; clearance [14]: 12 mL/min/kg; AUC at 24 h [15]: 0.307 µM·h
COC(=O)c1ccc2c(c1)-c1c[nH]c(n1)[C@@H](NC(=O)/C=C/c1cc(Cl)ccc1-n1cnnn1)C/C=C/CCC(=O)N2,6 min,–,245 nM,–
COC(=O)Nc1ccc2c(c1)N[C@@H](C(F)(F)F)CC/C=C/C[C@H](NC(=O)/C=C/c1cc(Cl)ccc1-n1cnnn1)c1nc-2c[nH]1,29 min,>40 µM,53 nM,–
COC(=O)Nc1ccc2c(c1)N[C@H](C(F)(F)F)CCCC[C@H](NC(=O)/C=C/c1cc(Cl)ccc1-n1cnnn1)c1nc-2c[nH]1,–,–,370 nM,–
O=C(/C=C/c1cc(Cl)ccc1-n1cnnn1)N[C@H]1CCCCC(=O)Nc2ccccc2-c2c[nH]c1n2,6 min,>40 µM,48 nM,Vd [16]: 1.2 L/kg; Papp B→A [2]: 20.5 ×10⁻⁶ cm/s; bioavailability [17]: < 1%; AUC at 24 h [18]: 0.001 µM·h; Papp A→B [8]: < 1.5 ×10⁻⁶ cm/s; clearance [19]: 53 mL/min/kg; half-life [20]: 30 min
O=C(/C=C/c1cc(Cl)ccc1-n1cnnn1)N[C@H]1C/C=C/CCC(=O)Nc2ccc(F)cc2-c2c[nH]c1n2,2 min,2.5 µM,6 nM,–
COC(=O)Nc1ccc2c(c1)N[C@@H](C(=O)N(C)C)CCCC[C@H](NC(=O)/C=C/c1cc(Cl)ccc1-n1cnnn1)c1nc-2c[nH]1,14 min,0.36 µM,0.31 nM,–
COC(=O)Nc1ccc2c(c1)N[C@@H](CO)CCCC[C@H](NC(=O)/C=C/c1cc(Cl)ccc1-n1cnnn1)c1nc-2c[nH]1,10 min,0.54 µM,0.61 nM,–
CCOC(=O)[C@H]1CCCC[C@H](NC(=O)/C=C/c2cc(Cl)ccc2-n2cnnn2)c2nc(c[nH]2)-c2ccc(NC(=O)OC)cc2N1,7 min,0.86 µM,0.22 nM,clearance [21]: 2.8 mL/min/kg; Papp B→A [2]: 13.3 ×10⁻⁶ cm/s; half-life [22]: 90 min; fraction unbound [12]: < 0.002; half-life [7]: 34 min; bioavailability [23]: 7%; Vd [24]: 0.2 L/kg; Papp A→B [8]: < 1.5 ×10⁻⁶ cm/s; AUC at 24 h [25]: 0.478 µM·h
COC(=O)Nc1ccc2c(c1)C[C@@H](C(=O)OC)CCCC[C@H](NC(=O)/C=C/c1cc(Cl)ccc1-n1cnnn1)c1nc-2c[nH]1,8 min,25 µM,24 nM,–
COC(=O)Nc1ccc2c(c1)N[C@@H](C(=O)O)CCCC[C@H](NC(=O)/C=C/c1cc(Cl)ccc1-n1cnnn1)c1cc-2ccn1,99 min,7.1 µM,2.6 nM,–
O=C(/C=C/c1cc(Cl)ccc1-n1cnnn1)N[C@H]1C/C=C/CCC(=O)Nc2cc(F)ccc2-c2c[nH]c1n2,3 min,16 µM,12 nM,–
O=C(/C=C/c1cc(Cl)ccc1-n1cnnn1)N[C@H]1C/C=C/CCC(=O)Nc2ccc(C(=O)O)cc2-c2c[nH]c1n2,94 min,1.7 µM,3.6 nM,–
COC(=O)Nc1ccc2c(c1)N[C@@H](C(=O)O)CCCC[C@H](NC(=O)/C=C/c1cc(Cl)ccc1-n1cnnn1)c1nc-2c[nH]1,70 min,0.87 µM,0.67 nM,half-life [26]: 60 min; Papp B→A [2]: < 1.5 ×10⁻⁶ cm/s; fraction unbound [12]: 0.014; half-life [7]: 75 min; bioavailability [27]: 1%; Papp A→B [8]: < 1.5 ×10⁻⁶ cm/s; AUC at 24 h [28]: 0.014 µM·h; clearance [29]: 7.7 mL/min/kg; Vd [30]: 0.33 L/kg
COC(=O)Nc1ccc2c(c1)N[C@@H](C)CCCC[C@H](NC(=O)/C=C/c1cc(Cl)ccc1-n1cnnn1)c1nc-2c[nH]1,7 min,5.2 µM,8.3 nM,–
COC(=O)Nc1ccc2c(c1)NCCCCC[C@H](NC(=O)/C=C/c1cc(Cl)ccc1-n1cnnn1)c1nc-2c[nH]1,6 min,6.2 µM,16 nM,–
COC(=O)Nc1ccc2c(c1)N[C@@H](C(F)F)CCCC[C@H](NC(=O)/C=C/c1cc(Cl)ccc1-n1cnnn1)c1nc-2c[nH]1,25 min,2 µM,1.3 nM,–
CCOC(=O)[C@H]1CCCC[C@H](NC(=O)/C=C/c2cc(Cl)ccc2-n2cnnn2)c2cc(ccn2)-c2ccc(NC(=O)OC)cc2N1,30 min,6.1 µM,2.5 nM,clearance [21]: 4.9 mL/min/kg; Papp B→A [2]: 10.1 ×10⁻⁶ cm/s; half-life [22]: 216 min; fraction unbound [12]: 0.008; half-life [7]: 59 min; bioavailability [23]: 41%; Vd [24]: 1.3 L/kg; Papp A→B [8]: < 1.5 ×10⁻⁶ cm/s; AUC at 24 h [25]: 1.29 µM·h
COC(=O)Nc1ccc2c(c1)N[C@@H](C(=O)OC)CCCC[C@H](NC(=O)/C=C/c1cc(Cl)ccc1-n1cnnn1)c1nc-2c[nH]1,10 min,0.55 µM,0.46 nM,Vd [31]: 0.3 L/kg; Papp B→A [2]: 10.3 ×10⁻⁶ cm/s; fraction unbound [12]: < 0.002; AUC at 24 h [32]: 0.487 µM·h; clearance [33]: 3 mL/min/kg; half-life [7]: 48 min; Papp A→B [8]: < 1.5 ×10⁻⁶ cm/s; bioavailability [34]: 8%; half-life [35]: 108 min
COC(=O)Nc1ccc2c(c1)NC(=O)CC/C=C/C[C@H](NC(=O)/C=C/c1cc(Cl)ccc1-n1cnnn1)c1nc-2c[nH]1,–,0.27 µM,–,Papp A→B [8]: < 1.5 ×10⁻⁶ cm/s
COC(=O)Nc1ccc2c(c1)N[C@@H](C(F)(F)F)CCCC[C@H](NC(=O)/C=C/c1cc(Cl)ccc1-n1cnnn1)c1cc-2ccn1,95 min,13 µM,16 nM,–
O=C(/C=C/c1cc(Cl)ccc1-n1cnnn1)N[C@H]1C/C=C/CCC(=O)Nc2ccccc2-c2c[nH]c1n2,3 min,2.9 µM,5.1 nM,–
